According to patent publication US7700655B2, “Antiallergic agents” (Institute of Medicinal Molecular Design, Inc., priority 2002, dated 2010):

Legend:
[1] = tested on: Bone marrow-derived cultured mast cells of NC/Nga mouse; assay: Proliferation inhibitory test of mast cell under stimulation by SCF and IL-3; format: cell-based; conditions: rmIL-3 100 U/ml + SCF 100 ng/ml, living cells by trypan blue
Experimental: Proliferation Inhibitory Test of Mast Cell Under Stimulation by SCF and IL-3
Bone marrow-derived cultured mast cells (10^5 cells/ml) of NC/Nga mouse were cultured with rmIL-3 (100 U/ml) and SCF (100 ng/ml) in the presence or absence of a test drug in α-Modified Eagle's Medium containing 10% of bovine fetal serum without phenol red, and then stained with trypan blue, and the number of living cells was counted.

[2] = tested on: mouse bone marrow-derived cultured mast cells (BMCMC); assay: Degranulation inhibitory test of mast cell (β-hexosaminidase release); format: cell-based; conditions: 1 h, anti DNP IgE / DNP-BSA 50 ng/ml stimulation, 60 minutes, read-out: Inhibitory Ration of Degranulation(%) at 10 μM Drug Concentration
Experimental: Degranulation Inhibitory Test of Mast Cell
Anti DNP IgE was added to mouse bone marrow-derived cultured mast cells (BMCMC) which were treated beforehand with anti DNP IgE for 4 days for expression of IgE receptor. The cells were cultured for 3 days, and treated for 1 hour with or without the addition of a test substance. Then, the medium was changed to α-Modified Eagle's Medium containing 10% of bovine fetal serum without phenol red. After cultivation for 60 minutes with rmIL-3 (100 U/ml) and DNP-BSA (50 ng/ml) in the presence or absence of the test substance, the concentrations of β-hexosaminidase in the culture medium and in the cells were determined, and the progress of degranulation was measured from a ratio of the amounts. The inhibitory ratio of the degranulation by the drug was calculated when degranulation in the absence of the test substance was taken as 100%, and degranulation in the presence of anti DNP-IgE only and in the absence of the test substance was taken as 0%.

[3] = tested on: B cells isolated from mouse spleen; assay: IgE production inhibitory test of spleen B cell (ELISA); format: cell-based; conditions: 0.1 μM; rmIL-4 200 U/ml + soluble mCD40 ligand 100 ng/ml, 9 days; no-drug control 45.6
Experimental: IgE Production Inhibitory Test of Spleen B Cell
B cells isolated from mouse spleen were cultured with 200 U/ml of rmIL-4 and 100 ng/ml of soluble mCD40 ligand in the presence or absence of a test drug in PRMI 1640 medium containing 10% of bovine fetal serum for 9 days, and the amount of IgE in the culture medium was measured by ELISA method.

[4] = tested on: HT-1080 cells; assay: Proliferation inhibitory test of fibrosarcoma (HT-1080) under PDGF stimulation (MTT assay); format: cell-based; conditions: 48 hours
Experimental: Proliferation Inhibitory Test of Fibrosarcoma (HT-1080) Under PDGF Stimulation
HT-1080 cells were cultured for 2 hours in EMEM medium containing 1% of FBS and NEAA in the presence or absence of a test substance. PDGF was added and the cells were cultured for 48 hours, and the proliferation of the cells was measured by MTT assay.

[5] = tested on: NC/Nga mouse; assay: Immediate type allergy reaction inhibitory test (ear swelling test); format: in vivo; conditions: 15 mg/kg intraperitoneally, picryl chloride on auricle; FIG. 1
Experimental: Immediate Type Allergy Reaction Inhibitory Test (Ear Swelling Test)
To NC/Nga mouse sensitized by an intravenous administration of anti DNP-IgE, a diluent with a test compound for the drug administered group or that without a test drug for the control group was intraperitoneally administered. Two hours after the administration, picryl chloride dissolved in olive oil was applied to auricle to induce immediate allergy, and then swelling of the auricle was measured with passage of time for comparison of the drug administered group and the control group.

[6] = tested on: NC/Nga mouse; assay: Dermatitis inhibitory test by atopic dermatitis model using NC/Nga mouse; format: in vivo; conditions: ointment containing 1% applied once a day; FIG. 2
Experimental: Dermatitis Inhibitory Test by Atopic Dermatitis Model Using NC/Nga Mouse
To the conventional NC/Nga mouse with the onset of severe dermatitis, an ointment containing 1% of a test substance for the drug treated group or a base material of the ointment for the control group was applied once a day, and clinical symptoms were recorded as scores with passage of day. Furthermore, the amounts of IgE in blood before and after the test were measured by ELISA.

Structure (SMILES) | inhibition at 10 µM [2] [%] | Inhibitory Ratio of Proliferation(%) ([4]; Drug Concentration 250 nM) | Inhibitory Ratio of Proliferation(%) ([4]; Drug Concentration 500 nM) | other results
O=C(Nc1cc(C(F)(F)F)cc(C(F)(F)F)c1)c1cc(Cl)ccc1O [compound 50, N-[3,5-Bis(trifluoromethyl)phenyl]-5-chloro-2-hydroxybenzamide] | > 99 | 65.4 | 96.6 | Number of Cell ([1]; 1 μM, culture time 0 hr): 100000 mL⁻¹; Number of Cell ([1]; 1 μM, culture time 24 hr): 86000 mL⁻¹; Number of Cell ([1]; 1 μM, culture time 48 hr): 84000 mL⁻¹; Number of Cell ([1]; 1 μM, culture time 72 hr): 116000 mL⁻¹; Number of Cell ([1]; 5 μM, culture time 0 hr): 100000 mL⁻¹; Number of Cell ([1]; 5 μM, culture time 24 hr): 70000 mL⁻¹; Number of Cell ([1]; 5 μM, culture time 48 hr): 52000 mL⁻¹; Number of Cell ([1]; 5 μM, culture time 72 hr): 22000 mL⁻¹; Amount of IgE [3]: 24 ng/mL; effect against immediate type allergy (swelling of the auricle) [5]: inhibitory effect; effect against dermatitis with an atopic dermatitis model (clinical symptom scores) [6]: inhibitory effect
CC(C)(C)c1ccc(O)c(C(=O)Nc2cc(C(F)(F)F)cc(C(F)(F)F)c2)c1 [compound 56, N-[3,5-Bis(trifluoromethyl)phenyl]-5-[(1,1-dimethyl)ethyl]-2-hydroxybenzamide] | 92 | 37.5 | 96.9 | 
O=C(Nc1cc(C(F)(F)F)cc(C(F)(F)F)c1)c1cc(-n2cccc2)ccc1O [compound 71] |  | 57.9 | 83.1 | 
O=C(Nc1cc(C(F)(F)F)ccc1C(F)(F)F)c1cc(Cl)ccc1O [compound 100, N-[2,5-bis(trifluoromethyl)phenyl]-5-chloro-2-hydroxybenzamide] | 83 |  |  | 
O=C(Nc1cc(C(F)(F)F)ccc1Cl)c1cc(Cl)ccc1O [compound 113, 5-chloro-N-[2-chloro-5-(trifluoromethyl)phenyl]-2-hydroxybenzamide] | 93 |  |  | 
CC(=O)Oc1ccccc1C(=O)Nc1cc(Cl)cc(Cl)c1 [compound 172, 2-acetoxy-N-(3,5-dichlorophenyl)benzamide] |  |  |  | melting point: 218 to 219 °C
CC(C)(C)C(=O)c1sc(NC(=O)c2cc(Cl)ccc2O)nc1C(C)(C)C [compound 195, 5-Chloro-N-{4-[(1,1-dimethyl)ethyl]-5-[(2,2-dimethyl)propionyl]thiazol-2-yl}-2-hydroxybenzamide] | 72 | 44.7 | 81.7 | 
CC(C)(C)c1nc(NC(=O)c2cc(Br)ccc2O)sc1N1CCOCC1 [compound 199, 5-Bromo-N-{4-[(1,1-dimethyl)ethyl]-5-morpholinothiazol-2-yl}-2-hydroxybenzamide] |  | 26.2 | 24.2 | 
CC(C)(C)c1nc(NC(=O)c2cc(Br)ccc2O)sc1N1CCN(c2ccccc2)CC1 [compound 201, 5-Bromo-N-{4-[(1,1-dimethyl)ethyl]-5-(4-phenylpiperazin-1-yl)thiazol-2-yl}-2-hydroxybenzamide] |  | 60.3 | 76.2 | 
O=C(Nc1cc(C(F)(F)F)ccc1C(F)(F)F)c1cc(Br)ccc1O [compound 552] |  | 24.0 | 19.4 | 
